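Growth conditions: 96-well plates. Treatment: test compound, 48 hours, 5 concentrations. Analysis: linear interpolation between bracketing concentrations; unreached endpoints set to highest concentration. Abbreviation: GI50, concentration required for 50% inhibition of growth. TGI is the concentration that stops growth completely.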
Legend:
Experiment in all cases: inhibition of tumour cell growth, NCI panel, 48 h
HL-60(TB) leukemia = test system: HL-60(TB) leukemia
CAKI-1 renal = test system: CAKI-1 renal
K-562 leukemia = test system: K-562 leukemia
RXF 393 renal = test system: RXF 393 renal
SNB-75 CNS = test system: SNB-75 CNS
A549 NSCLC = test system: A549 NSCLC
MALME-3M melanoma = test system: MALME-3M melanoma
SK-MEL-28 melanoma = test system: SK-MEL-28 melanoma
SR leukemia = test system: SR leukemia
IGROV1 ovarian = test system: IGROV1 ovarian
PC-3 prostate = test system: PC-3 prostate
NCI/ADR-RES ovarian = test system: NCI/ADR-RES ovarian
HCT-116 colon = test system: HCT-116 colon
EKVX NSCLC = test system: EKVX NSCLC
MOLT-4 leukemia = test system: MOLT-4 leukemia
SK-MEL-5 melanoma = test system: SK-MEL-5 melanoma
OVCAR-5 ovarian = test system: OVCAR-5 ovarian
COLO 205 colon = test system: COLO 205 colon
HCT-15 colon = test system: HCT-15 colon
HOP-62 NSCLC = test system: HOP-62 NSCLC
SK-MEL-2 melanoma = test system: SK-MEL-2 melanoma
SN12C renal = test system: SN12C renal
SNB-19 CNS = test system: SNB-19 CNS
UACC-62 melanoma = test system: UACC-62 melanoma
OVCAR-3 ovarian = test system: OVCAR-3 ovarian
DU-145 prostate = test system: DU-145 prostate
MCF7 breast = test system: MCF7 breast
786-0 renal = test system: 786-0 renal
A498 renal = test system: A498 renal

## C=CC(=O)N1CC2(CC(n3nc(-c4ccc5c(cnn5C)c4)c(-c4c(Cl)c(C)cc5[nH]ncc45)c3C)C2)C1
HL-60(TB) leukemia
  GI50: 2.58 µM
  TGI: 9.27 µM
CAKI-1 renal
  GI50: 3.95 µM
  TGI: 14.3 µM
K-562 leukemia
  GI50: 2.78 µM
  TGI: > 100 µM
RXF 393 renal
  GI50: 1.6 µM
  TGI: 3.49 µM
SNB-75 CNS
  GI50: 2.57 µM
  TGI: 11.9 µM
A549 NSCLC
  GI50: 3.05 µM
  TGI: 12.5 µM
MALME-3M melanoma
  GI50: 2.44 µM
  TGI: 5.09 µM
SK-MEL-28 melanoma
  GI50: 2.44 µM
  TGI: 5.44 µM
SR leukemia
  GI50: 1.61 µM
  TGI: 6.12 µM
IGROV1 ovarian
  GI50: 2.76 µM
  TGI: 8.18 µM
PC-3 prostate
  GI50: 3.59 µM
  TGI: 22.8 µM
NCI/ADR-RES ovarian
  GI50: 2.23 µM
  TGI: 5.21 µM
HCT-116 colon
  GI50: 1.83 µM
  TGI: 3.74 µM
EKVX NSCLC
  GI50: 3.23 µM
  TGI: 11.1 µM
MOLT-4 leukemia
  GI50: 1.74 µM
  TGI: 9 µM
SK-MEL-5 melanoma
  GI50: 1.61 µM
  TGI: 3.02 µM
OVCAR-5 ovarian
  GI50: 4.03 µM
  TGI: 13.9 µM
COLO 205 colon
  GI50: 2.1 µM
  TGI: 4.17 µM
HCT-15 colon
  GI50: 1.54 µM
  TGI: 3.05 µM
HOP-62 NSCLC
  TGI: 19.5 µM
SK-MEL-2 melanoma
  GI50: 1.91 µM
  TGI: 3.63 µM
SN12C renal
  GI50: 3.08 µM
  TGI: 12.1 µM
SNB-19 CNS
  GI50: 3.43 µM
  TGI: 13.5 µM
UACC-62 melanoma
  GI50: 1.94 µM
  TGI: 4.04 µM
OVCAR-3 ovarian
  GI50: 1.98 µM
  TGI: 4.18 µM
DU-145 prostate
  GI50: 3.11 µM
  TGI: 9.45 µM
MCF7 breast
  GI50: 2.2 µM
  TGI: 7.03 µM
786-0 renal
  GI50: 3.71 µM
  TGI: 15.4 µM
A498 renal
  GI50: 3.99 µM
  TGI: 13.3 µM

Source: PubChem BioAssay (NCI)
